Results as given in US20110105623A1 (Biogenic Innovations, LLC, priority 2009, published 2011).

What was measured:
Type in all cases: cell-based
[1] = test system: Candida albicans; assay: USP AET, MSM in TSB; parameters: key to AET microorganism count: Colonies too numerous to count (TNTC); conditions: for Log Reduction from Initial Microorganism Inoculum: 1:10 dilution of MSM, 14, 28 Days; for AET microorganism count: 48 hrs
Source text: (§1) Compounds or formulated products having antimicrobial activity may be evaluated with the United States Pharmacopeia (USP) Antimicrobial Effectiveness Test (AET). The AET involves the addition of specified microorganisms (Candida albicans, Aspergillus niger, Escherichia coli, Pseudomonas aeruginosa and Staphylococcus aureus) directly to a test product at relatively high concentrations to simulate contamination. The product is held for one month, with weekly analysis of microorganism levels. Depending on the route of administration of a product, satisfaction of the AET generally requires a 1 to 3 log reduction in bacteria from initial levels, which should occur in one to two weeks, with no further increase in bacteria after two weeks. For yeast and mold, no increase from the initial inoculums level is permitted.
(§2) Inoculations were made using Candida albicans, Aspergillus niger, Escherichia coli, Pseudomonas aeruginosa and Staphylococcus aureus. Tryptic soy broth (TSB) was used as the culturing media. […] The inoculated media was held for one month, during which time the added microorganisms were enumerated weekly to determine if they were growing, dying off, or remaining near the initial inoculation level. Data points were measured in triplicate at 48 hours, 3, 5, 14, 20, 28, and 30 days. The acceptance criteria for antimicrobial effectiveness are described in detail in the USP, herein incorporated by reference.

[2] = test system: Staphylococcus aureus; assay: USP AET, MSM in TSB; parameters: key to AET microorganism count: Colonies too numerous to count (TNTC); conditions: for Log Reduction from Initial Microorganism Inoculum: 1:10 dilution of MSM, 14, 28 Days; for AET microorganism count: 48 hrs
Source text: as §1, §2

[3] = test system: Bacillus coagulans; assay: Probiotic growth in media supplemented with MSM
Source text: Plates were then counted. […] Data are presented in Cfu/mL.

Methylsulfonylmethane [MSM] was tested, and the “Log Reduction from Initial Microorganism Inoculum” value (from here on “Log Reduction”) ([1]; 14 days after inoculation) was 4.2 log, the “Log Reduction” value ([1]; 28 days after inoculation) was 4.4 log and the AET microorganism count ([1]; 1:100 dilution of MSM) was “TNTC”. The AET microorganism count ([1]; 1:1000 dilution of MSM) was “TNTC”, the “Log Reduction” value ([2]; 14 days after inoculation) was 4.5 log and the “Log Reduction” value ([2]; 28 days after inoculation) was 4.7 log. For the same substance, the AET microorganism count ([2]; 1:100 dilution of MSM) was “TNTC”, the AET microorganism count ([2]; 1:1000 dilution of MSM) was “TNTC” and the “Growth of Bacillus coagulans” value ([3]; 0.125% MSM, 0 h) was 1.52 log10 CFU/mL. The “Growth of Bacillus coagulans” value ([3]; 0.125% MSM, 8 h) was 4.81 log10 CFU/mL, the “Growth of Bacillus coagulans” value ([3]; 0.125% MSM, 16 h) was 6.95 log10 CFU/mL and the “Growth of Bacillus coagulans” value ([3]; 0.125% MSM, 24 h) was 9.87 log10 CFU/mL. The “Growth of Bacillus coagulans” value ([3]; 0.125% MSM, 32 h) was 11.06 log10 CFU/mL, the “Growth of Bacillus coagulans” value ([3]; 0.125% MSM, 40 h) was 11.72 log10 CFU/mL and the “Growth of Bacillus coagulans” value ([3]; 0.125% MSM, 48 h) was 11.56 log10 CFU/mL. The “Growth of Bacillus coagulans” value ([3]; 0.125% MSM, 56 h) was 9.60 log10 CFU/mL, the “Growth of Bacillus coagulans” value ([3]; 0.125% MSM, 64 h) was 12.13 log10 CFU/mL and the “Growth of Bacillus coagulans” value ([3]; 0.125% MSM, 72 h) was 10.14 log10 CFU/mL. For the same substance, the “Growth of Bacillus coagulans” value ([3]; 0.2% MSM, 0 h) was 1.67 log10 CFU/mL, the “Growth of Bacillus coagulans” value ([3]; 0.2% MSM, 8 h) was 4.94 log10 CFU/mL and the “Growth of Bacillus coagulans” value ([3]; 0.2% MSM, 16 h) was 7.19 log10 CFU/mL. The “Growth of Bacillus coagulans” value ([3]; 0.2% MSM, 24 h) was 10.34 log10 CFU/mL, the “Growth of Bacillus coagulans” value ([3]; 0.2% MSM, 32 h) was 11.25 log10 CFU/mL and the “Growth of Bacillus coagulans” value ([3]; 0.2% MSM, 40 h) was 11.34 log10 CFU/mL. The “Growth of Bacillus coagulans” value ([3]; 0.2% MSM, 48 h) was 9.94 log10 CFU/mL, the “Growth of Bacillus coagulans” value ([3]; 0.2% MSM, 56 h) was 11.45 log10 CFU/mL and the “Growth of Bacillus coagulans” value ([3]; 0.2% MSM, 64 h) was 11.37 log10 CFU/mL. For the same substance, the “Growth of Bacillus coagulans” value ([3]; 0.2% MSM, 72 h) was 10.94 log10 CFU/mL, the “Growth of Bacillus coagulans” value ([3]; 0.50% MSM, 0 h) was 1.48 log10 CFU/mL and the “Growth of Bacillus coagulans” value ([3]; 0.50% MSM, 8 h) was 4.42 log10 CFU/mL. The “Growth of Bacillus coagulans” value ([3]; 0.50% MSM, 16 h) was 6.94 log10 CFU/mL, the “Growth of Bacillus coagulans” value ([3]; 0.50% MSM, 24 h) was 10.29 log10 CFU/mL and the “Growth of Bacillus coagulans” value ([3]; 0.50% MSM, 32 h) was 11.05 log10 CFU/mL. For the same substance, the “Growth of Bacillus coagulans” value ([3]; 0.50% MSM, 40 h) was 10.25 log10 CFU/mL, the “Growth of Bacillus coagulans” value ([3]; 0.50% MSM, 48 h) was 10.40 log10 CFU/mL and the “Growth of Bacillus coagulans” value ([3]; 0.50% MSM, 56 h) was 10.76 log10 CFU/mL. For the same substance, the “Growth of Bacillus coagulans” value ([3]; 0.50% MSM, 64 h) was 10.45 log10 CFU/mL, the “Growth of Bacillus coagulans” value ([3]; 0.50% MSM, 72 h) was 10.86 log10 CFU/mL and the “Growth of Bacillus coagulans” value ([3]; 1% MSM, 0 h) was 1.30 log10 CFU/mL. For the same substance, the “Growth of Bacillus coagulans” value ([3]; 1% MSM, 8 h) was 4.98 log10 CFU/mL, the “Growth of Bacillus coagulans” value ([3]; 1% MSM, 16 h) was 7.29 log10 CFU/mL and the “Growth of Bacillus coagulans” value ([3]; 1% MSM, 24 h) was 10.30 log10 CFU/mL. For the same substance, the “Growth of Bacillus coagulans” value ([3]; 1% MSM, 32 h) was 11.42 log10 CFU/mL, the “Growth of Bacillus coagulans” value ([3]; 1% MSM, 40 h) was 11.02 log10 CFU/mL and the “Growth of Bacillus coagulans” value ([3]; 1% MSM, 48 h) was 10.38 log10 CFU/mL. The “Growth of Bacillus coagulans” value ([3]; 1% MSM, 56 h) was 10.86 log10 CFU/mL, the “Growth of Bacillus coagulans” value ([3]; 1% MSM, 64 h) was 10.40 log10 CFU/mL and the “Growth of Bacillus coagulans” value ([3]; 1% MSM, 72 h) was 10.70 log10 CFU/mL. For the same substance, the “Growth of Bacillus coagulans” value ([3]; 5% MSM, 0 h) was 1.56 log10 CFU/mL, the “Growth of Bacillus coagulans” value ([3]; 5% MSM, 8 h) was 4.61 log10 CFU/mL and the “Growth of Bacillus coagulans” value ([3]; 5% MSM, 16 h) was 7.56 log10 CFU/mL. For the same substance, the “Growth of Bacillus coagulans” value ([3]; 5% MSM, 24 h) was 10.48 log10 CFU/mL, the “Growth of Bacillus coagulans” value ([3]; 5% MSM, 32 h) was 11.55 log10 CFU/mL and the “Growth of Bacillus coagulans” value ([3]; 5% MSM, 40 h) was 10.85 log10 CFU/mL. The “Growth of Bacillus coagulans” value ([3]; 5% MSM, 48 h) was 10.22 log10 CFU/mL, the “Growth of Bacillus coagulans” value ([3]; 5% MSM, 56 h) was 11.1 log10 CFU/mL and the “Growth of Bacillus coagulans” value ([3]; 5% MSM, 64 h) was 10.75 log10 CFU/mL. For the same substance, the “Growth of Bacillus coagulans” value ([3]; 5% MSM, 72 h) was 11.81 log10 CFU/mL, the “Growth of Bacillus coagulans” value ([3]; […] MSM, 0 h) was 1.43 log10 CFU/mL and the “Growth of Bacillus coagulans” value ([3]; […] MSM, 8 h) was 5.13 log10 CFU/mL. The “Growth of Bacillus coagulans” value ([3]; […] MSM, 16 h) was 7.05 log10 CFU/mL, the “Growth of Bacillus coagulans” value ([3]; […] MSM, 24 h) was 10.22 log10 CFU/mL and the “Growth of Bacillus coagulans” value ([3]; […] MSM, 32 h) was 11.70 log10 CFU/mL. The “Growth of Bacillus coagulans” value ([3]; […] MSM, 40 h) was 10.55 log10 CFU/mL.
